The results in this text go back to ChEMBL document CHEMBL4359843, “Linear and Rationally Designed Stapled Peptides Abrogate TLR4 Pathway and Relieve Inflammatory Symptoms in Rheumatoid Arthritis Rat Model” (J Med Chem, 2019).

Calls of active or inactive are those of the source. The calls are words filed in the database; no cut-off is given here. Where a SMILES comes first, the peptide text is derived from it. Bridges are numbered along the chain shown (N, C = ends).

Data set [1] has as its target T1, Toll-like receptor 1/2 (Homo sapiens) (UniProt O60603+Q15399). In words: Antagonist activity at TLR2/1 in human PBMC cells assessed as reduction in PAM3CSK4-induced IL6 secretion at 20 to 80 uM after 24 hrs by ELISA. It is filed as cell-based. (ELISA stands for enzyme-linked immunosorbent assay.)
For data set [2], the target named is T2, Toll-like receptor 4 (Homo sapiens, UniProt O00206). Description: Antagonist activity at TLR4 in human PBMC cells assessed as reduction in LPS-induced IkappaBalpha degradation at 80 uM after 15 to 30 mins by Western blot analysis. It is filed as cell-based. (In general: Immunoblotting shows a protein as a band on a membrane.)
T2 sequence (O00206 whole entry): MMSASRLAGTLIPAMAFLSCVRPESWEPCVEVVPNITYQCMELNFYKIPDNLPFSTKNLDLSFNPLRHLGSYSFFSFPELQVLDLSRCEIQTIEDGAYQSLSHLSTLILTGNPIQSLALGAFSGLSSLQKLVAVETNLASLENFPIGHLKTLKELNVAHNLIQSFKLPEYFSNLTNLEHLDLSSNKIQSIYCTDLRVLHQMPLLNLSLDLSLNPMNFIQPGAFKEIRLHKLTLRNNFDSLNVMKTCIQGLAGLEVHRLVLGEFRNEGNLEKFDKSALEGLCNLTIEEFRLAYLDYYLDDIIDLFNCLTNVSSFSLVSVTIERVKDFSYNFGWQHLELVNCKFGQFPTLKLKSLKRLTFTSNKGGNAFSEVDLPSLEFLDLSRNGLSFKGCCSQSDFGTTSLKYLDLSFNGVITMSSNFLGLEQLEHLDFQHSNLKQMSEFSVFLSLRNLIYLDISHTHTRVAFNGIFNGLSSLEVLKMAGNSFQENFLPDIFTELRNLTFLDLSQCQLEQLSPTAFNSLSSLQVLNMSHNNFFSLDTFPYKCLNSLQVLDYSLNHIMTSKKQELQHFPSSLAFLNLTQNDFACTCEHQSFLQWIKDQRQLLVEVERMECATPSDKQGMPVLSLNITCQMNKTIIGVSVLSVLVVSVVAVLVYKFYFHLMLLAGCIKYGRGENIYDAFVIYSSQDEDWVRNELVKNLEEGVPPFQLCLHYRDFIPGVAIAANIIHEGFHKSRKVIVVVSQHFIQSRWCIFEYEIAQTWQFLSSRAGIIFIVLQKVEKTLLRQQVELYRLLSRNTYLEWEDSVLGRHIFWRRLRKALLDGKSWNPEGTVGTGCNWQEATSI
Data set [3] has as its target T3, Toll-like receptor 4 (Mus musculus) (UniProt Q9QUK6).
T3 sequence (whole entry): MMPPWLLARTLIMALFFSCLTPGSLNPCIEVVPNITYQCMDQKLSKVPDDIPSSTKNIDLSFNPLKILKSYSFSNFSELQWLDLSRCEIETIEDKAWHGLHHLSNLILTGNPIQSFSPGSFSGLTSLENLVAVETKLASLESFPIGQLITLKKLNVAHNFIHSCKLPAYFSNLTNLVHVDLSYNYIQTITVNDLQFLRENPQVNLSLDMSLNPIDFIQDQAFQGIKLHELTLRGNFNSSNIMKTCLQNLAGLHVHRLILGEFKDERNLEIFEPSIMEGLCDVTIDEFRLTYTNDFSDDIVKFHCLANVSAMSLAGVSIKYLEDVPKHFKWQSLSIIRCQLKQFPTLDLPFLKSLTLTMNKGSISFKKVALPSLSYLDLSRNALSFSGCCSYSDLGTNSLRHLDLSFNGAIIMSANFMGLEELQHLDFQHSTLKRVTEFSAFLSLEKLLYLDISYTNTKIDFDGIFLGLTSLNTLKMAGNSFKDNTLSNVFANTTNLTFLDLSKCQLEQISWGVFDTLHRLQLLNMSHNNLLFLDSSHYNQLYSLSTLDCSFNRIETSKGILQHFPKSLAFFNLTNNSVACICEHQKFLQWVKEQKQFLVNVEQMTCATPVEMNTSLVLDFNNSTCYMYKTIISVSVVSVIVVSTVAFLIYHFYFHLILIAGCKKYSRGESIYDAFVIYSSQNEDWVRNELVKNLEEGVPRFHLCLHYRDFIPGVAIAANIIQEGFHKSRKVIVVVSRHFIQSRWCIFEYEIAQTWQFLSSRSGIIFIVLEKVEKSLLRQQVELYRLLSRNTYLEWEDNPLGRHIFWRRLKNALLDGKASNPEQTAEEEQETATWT
In words: Antagonist activity at TLR4 in mouse RAW264.7 cells assessed as reduction in LPS-induced NFkappaB p65 phosphorylation at 80 uM preincubated for 1 hr followed by LPS stimulation and measured after 30 mins by Alexafluor-488/Hoechst 33258 staining based immunofluorescence confocal microscopic method. It is filed as cell-based.

The target of data set [4] is T3, Toll-like receptor 4 (Mus musculus). Description: Antagonist activity at TLR4 in mouse RAW264.7 cells assessed as reduction in LPS-induced extracellular NO secretion at 20 to 80 uM by spectrophotometric method. It is filed as cell-based.
In data set [5] the target is T2, Toll-like receptor 4. Description: Antagonist activity at TLR4 in human PBMC cells assessed as reduction in LPS-induced JNK phosphorylation at 80 uM after 15 to 30 mins by Western blot analysis. It is filed as cell-based.
Data set [6] is described as follows: Effect on SEAP activity in HEK-Blue cells harboring human TLR4 at 20 to 80 uM after 1 hr by SEAP assay. It is filed as ADME, cell-based.
Another data set concerns Mus musculus. In words: Antiinflammatory activity in C57BL/6J mouse assessed as reduction in LPS-induced IL6 secretion at 70 nmol/g, ip pretreated for 1 hr followed by LPS challenge and measured after 2 hrs by ELISA. It is filed as functional, organism-based.
For data set [7], the target named is T3, Toll-like receptor 4 (Mus musculus). Description: Antagonist activity at TLR4 in mouse RAW264.7 cells assessed as reduction in LPS-induced IFNbeta secretion after 24 hrs by ELISA. It is filed as cell-based.
The target is the same in data set [8]. Description: Antagonist activity at TLR4 in mouse RAW264.7 cells assessed as reduction in LPS-induced IRF3 phosphorylation at 80 uM after 120 to 240 mins by Western blot analysis. It is filed as cell-based.
Data set [9] concerns the target T2, Toll-like receptor 4. In words: Antagonist activity at TLR4 in human PBMC cells assessed as reduction in LPS-induced p38 phosphorylation at 80 uM after 15 to 30 mins by Western blot analysis. It is filed as cell-based.
In data set [10] the target is T3, Toll-like receptor 4 (Mus musculus). In words: Antagonist activity at TLR4 in mouse RAW264.7 cells assessed as reduction in LPS-induced COX2 expression at 80 uM by Western blot analysis. It is filed as cell-based.
Data set [11] concerns the target T2, Toll-like receptor 4. Description: Antagonist activity at TLR4 in human PBMC cells assessed as reduction in LPS-induced TNFalpha secretion at 20 to 80 uM after 24 hrs by ELISA. It is filed as cell-based.
Data set [12] concerns the target T3, Toll-like receptor 4 (Mus musculus). In words: Antagonist activity at TLR4 in mouse RAW264.7 cells assessed as reduction in LPS-induced IkappaBalpha cytosolic degradation at 80 uM after 15 to 30 mins by Western blot analysis. It is filed as cell-based.
Data set [13] has the same target. In words: Antagonist activity at TLR4 in mouse RAW264.7 cells assessed as reduction in LPS-induced IFNalpha secretion at 5 to 50 uM after 24 hrs by ELISA. It is filed as cell-based.
In data set [14] the test system is Rattus norvegicus. In words: Antiarthritic activity in Lewis rat model of complete Freund's adjuvant-induced arthritis assessed as reduction in TNFalpha expression in synovial tissues at 1 nmol/g administered intra-articularly into knee joint measured at 1 week by TNFalpha staining based immunohistochemical analysis. It is filed as functional, organism-based.

In data set [15] the target is T2, Toll-like receptor 4. In words: Antagonist activity at TLR4 in human THP1 cells assessed as reduction in LPS-induced ERK phosphorylation at 50 uM after 15 to 30 mins by Western blot analysis. It is filed as cell-based.
The target of data set [16] is T2, Toll-like receptor 4. In words: Antagonist activity at TLR4 in human THP1 cells assessed as reduction in LPS-induced JNK phosphorylation at 50 uM after 15 to 30 mins by Western blot analysis. It is filed as cell-based.
Data set [17] deals with T3, Toll-like receptor 4 (Mus musculus). In words: Antagonist activity at TLR4 in mouse RAW264.7 cells assessed as reduction in LPS-induced extracellular NO secretion at 5 to 50 uM by spectrophotometric method. It is filed as cell-based.
In data set [18] the test system is Rattus norvegicus. Description: Antiarthritic activity in Lewis rat model of complete Freund's adjuvant-induced arthritis assessed as increase in osteocytes within lacunae at 1 nmol/g administered intra-articularly into knee joint after 4 to 6 week by H and E staining based histopathological analysis. It is filed as functional, organism-based.
For data set [19], the target named is T2, Toll-like receptor 4. In words: Antagonist activity at TLR4 in human THP1 cells assessed as reduction in LPS-induced IL6 secretion at 50 uM after 24 hrs by ELISA. It is filed as cell-based.
The test system of data set [20] is Rattus norvegicus. Description: Antiarthritic activity in Lewis rat model of complete Freund's adjuvant-induced arthritis assessed as reduction in inflammation synovial tissues at 1 nmol/g administered intra-articularly into knee joint after 6 week by Safranin-O staining based histopathological analysis. It is filed as functional, organism-based.
In data set [21] the test system is Rattus norvegicus. Description: Antiarthritic activity in Lewis rat model of complete Freund's adjuvant-induced arthritis assessed as regain of normal feet physiology at 1 nmol/g administered intra-articularly into knee joint after 5 to 6 weeks by visual analysis. It is filed as functional, organism-based.
A further data set has as its system RAW264.7. In words: Cytotoxicity against mouse RAW264.7 cells assessed as reduction in cell viability at 5 to 50 uM after 24 hrs by MTT assay. It is filed as cell-based. To be noted: raw264.7, 24 h. On the technique in general: Tetrazolium dyes change colour on reduction, which living cells bring about.
Data set [22] concerns the target T1, Toll-like receptor 1/2 (Homo sapiens). In words: Antagonist activity at TLR2/1 in human THP1 cells assessed as reduction in PAM3CSK4-induced IL6 secretion at 50 uM after 24 hrs by ELISA. It is filed as cell-based.

With H-LGVFSSWWIKLV-OH, in [1], the result was inactive. The outcome (on Toll-like receptor 4 [2]; in data set [3]; in data set [4]; at Toll-like receptor 4 [5]; in the data set with Mus musculus; in [8]) was Active. Also, the result (at Toll-like receptor 4 [9]; in [10]; on Toll-like receptor 4 [11]; in [12]) was Active. In addition, the Activity entry is “Non-Toxic” in [6] and “Dose-dependent effect” in [7].
Regarding `CC[C@H](C)[C@@H]1NC(=O)[C@H](Cc2c[nH]c3ccccc23)NC(=O)[C@H](Cc2c[nH]c3ccccc23)NC(=O)[C@@H](NC(=O)[C@H](CO)NC(=O)[C@H](Cc2ccccc2)NC(=O)[C@@H](NC(=O)CNC(=O)[C@@H](N)CC(C)C)C(C)C)CC(=O)NCCCC[C@@H](C(=O)N[C@@H](CC(C)C)C(=O)N[C@H](C(=O)O)C(C)C)NC1=O` (H-LGVFSDWWIKLV-OH; lactam 6-10), the outcome (in data set [13]; in the data set with Rattus norvegicus [14]; on Toll-like receptor 4 [15]; at Toll-like receptor 4 [16]; in data set [17]; in the data set on Rattus norvegicus [18]) was Active. The outcome (at Toll-like receptor 4 [19]; with Rattus norvegicus [20]; in the data set with Rattus norvegicus [21]; in data set [22]) was Active. For the same molecule, the Activity result with RAW264.7 is given as “Non-Toxic”.
